From patent US5045543A, “5-amino or substituted amino 1,2,3-triazoles useful as antimetastatic agents” (Merck & Co., Inc., priority 1989, dated 1991)
“Also recorded” adds a separate entry of the source.

Columns and labels:
[1] = tested on: macrophages; assay: LTC4 and PGE2 production and lysosomal enzyme release in macrophages; type: cell-based; details: 1 μg/ml
[2] = tested on: 5-lipoxygenase; assay: Direct inhibition of 5-lipoxygenase; type: biochemical
[3] = tested on: Maden Darby Bovine Kidney (MDBK) cells; assay: 3H-Hypoxanthine uptake (incorporation) into MDBK cells; type: cell-based; details: 1.0 μg/ml; for inhibition at 1 µg/mL: Bos taurus, MDBK
Protocol: Compound A and analogs are capable of inhibiting nucleotide biosynthesis in a variety of mammalian cell types.
Confluent cells were incubated in Eagles Minimal Essential media for 2.5 hours, then incubated with Phosphate buffered saline +Ca +Mg for 30 minutes, and then they were incubated with or without 1 μg/ml Compound A for 15 minutes. Media containing 100 μM 8-^3 H-hypoxanthine with or without drug was incubated for the time shown with the cells after which they were quenched by immersion in ice cold buffer. The DPM measurements were made on aliquots of neutralized perchloric acid supernatants.

[4] = tested on: P388 leukemia; assay: Life prolongation assay, P388 leukemia in nude mice; type: in vivo; details: for life prolongation: control survival 15 to 20 days
Protocol: (§1) The topical antiproliferative activities, along with in vitro antiproliferative activities against human keratinocytes and fibroblasts, provide the biological data in support of the claimed utility:
The doses used were 240, 120 and 60 mg/kg delivered i.p. once per day for five days.

[5] = tested on: pig skin epidermal basal cells (keratinocytes); assay: UV induced hyperproliferation in pig skin in vivo (topical antiproliferative activity); details: for effect on uv induced hyperproliferation: daily topical application; for LI (labelling index): uv exposed Gel #1 control 20.8, normal 7.6
Protocol: as §1
In one experiment, a 20 kg pig was sedated and multiple areas of clipped skin were exposed to uv radiation sufficient to provoke a moderate hyperproliferative response within several days of exposure. On days 0, 1, 2 and 3 replicate irradiated sites were treated topically with Compound A in several vehicles or solvents. Topical preparations included a 2% drug in Gel #1, a combination of isopropyl myristate:Crodamol:ethanol, 1:1:2, or DMSO. The hyperproliferative response of the skin to uv was assessed on day 4 by injecting ^3 H-thymidine intradermally, and, 1 hour later, removing the sites by punch biopsy and processing the samples for autoradiography. Such autoradiographs indicate the number of epidermal cells in S phase synthesizing DNA and this is a common tool used by dermatologists to assess inhibition of proliferation in vivo. A single injection of methotrexate, 4 hours prior to ^3 H-thymidine injection was used as a positive control for inhibition of DNA synthesis. A labelling index, L.I., which is the percent of the total number of epidermal basal cells (keratinocytes) counted showing label incorporation. Four days after exposure to uv, the L.I. of pig skin increased from 7.6% to 20.8% (normal human skin ca. 2%, psoriatic lesions ca. 25%, for comparison).

## NC(=O)c1nnn(Cc2cc(Cl)c(C(=O)c3ccc(Cl)cc3)c(Cl)c2)c1N [Compound A, 5-amino-1-(4-(4-chlorobenzoyl)-3,5-dichlorobenzyl)-1,2,3-triazole-4-carboxamide]
[1]
  inhibition of LTC4 production: inhibit
  inhibition of PGE2 production: inhibit
  inhibition of lysosomal enzyme release: inhibit
[2]
  direct inhibition of 5-lipoxygenase: no evidence of direct inhibition
[3]; Eagles Minimal Essential media
  3H-hypoxanthine incorporation into MDBK cells: substantially reduced
[3]; 10 min, control 87000
  3H-Hypoxanthine Uptake, DPM: 36000 DPM
[3]; 20 min, control 140000
  3H-Hypoxanthine Uptake, DPM: 40000 DPM
[3]; 30 min, control 190000
  3H-Hypoxanthine Uptake, DPM: 40000 DPM
[3]; 10 min
  inhibition at 1 µg/mL: 59%
[3]; 20 min
  inhibition at 1 µg/mL: 71%
[3]; 30 min
  inhibition at 1 µg/mL: 79%
[4]; 60 mg/kg i.p. once per day for five days
  life prolongation: 127%
[4]; 120 mg/kg i.p. once per day for five days
  life prolongation: 124%
[4]; 240 mg/kg i.p. once per day for five days
  life prolongation: 134%
[4]; 240, 120, 60 mg/kg i.p.
  in vivo activity against P388 leukemia: significant in vivo activity
[4]; Mus musculus, ip, P388 leukemia, nude mice, read-out: active dose in life prolongation assay
  minimal effective dose: ≥ 60 mg/kg/day
[5]; 2% formulation in Gel #1, topical
  inhibition of uv induced hyperproliferation in pig skin: inhibits completely
[5]; Crodamol
  effect on uv induced hyperproliferation: less effective
[5]; DMSO
  effect on uv induced hyperproliferation: no effect
[5]; Gel #1
  effect on uv induced hyperproliferation: dramatically reduced the uv induced hyperproliferation
[5]; effects dependent upon vehicle
  topical antiproliferative activity: active topically as an antiproliferative; also recorded: Topical activity against keratinocyte proliferation has been demonstrated
[5]; topical, Crodamol
  UV induced hyperproliferation, % Inhibition: 29%
  LI (labelling index): 17.0%
[5]; topical, Crodamol, of 963 basal cells counted
  Labelled Cells: 165
[5]; topical, DMSO
  UV induced hyperproliferation, % Inhibition: 0%
  LI (labelling index): 20.1%
[5]; topical, DMSO, of 744 basal cells counted
  Labelled Cells: 150
[5]; topical, Gel #1
  UV induced hyperproliferation, % Inhibition: 100%
  inhibition of proliferation compared with injected methotrexate: comparable to that for injected methotrexate
  LI (labelling index): 5.6%
[5]; topical, Gel #1, of 1020 basal cells counted
  Labelled Cells: 57
